The target of assay [1] is T1, 5-HT7 receptor (Homo sapiens, UniProt P34969).
T1 construct: purchased PerkinElmer
Put plainly: Radioligand binding assay, serotoninergic 5-HT7 receptors.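 Note: test compound at 1 µM.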 The note with it: binding assay result in %, Table 5a. The procedure, abridged: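 Ki values used the Cheng–Prusoff equation, with KD from Scatchard analysis, applied to IC50 from Hill fits of human 5-HT7 radioligand competition curves. Bound radioligand was counted by scintillation, and excess unlabelled ligand set the non-specific binding.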

Assay [2] addresses T2, 5-HT1A receptor (rat hippocampus) (Rattus norvegicus, UniProt P19327).
T2 construct: hippocampus; from tissue; host or cells: rat hippocampus
T2 sequence (P19327 1-422): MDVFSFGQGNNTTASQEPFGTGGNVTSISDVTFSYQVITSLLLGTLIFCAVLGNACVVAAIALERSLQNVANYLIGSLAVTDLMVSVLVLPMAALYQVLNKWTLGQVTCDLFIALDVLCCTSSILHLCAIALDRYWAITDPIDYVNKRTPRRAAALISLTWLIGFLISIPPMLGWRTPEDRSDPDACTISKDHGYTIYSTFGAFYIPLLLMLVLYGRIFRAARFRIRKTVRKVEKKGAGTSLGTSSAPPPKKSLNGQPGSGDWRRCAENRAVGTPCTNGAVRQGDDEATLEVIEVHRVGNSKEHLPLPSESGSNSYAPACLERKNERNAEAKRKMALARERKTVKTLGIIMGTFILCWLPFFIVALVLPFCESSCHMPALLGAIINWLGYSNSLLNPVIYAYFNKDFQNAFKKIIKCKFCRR
Put plainly: Radioligand binding assay, serotoninergic 5-HT1A receptors.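 Note: test compound at 1 µM.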 The note with it: binding assay result in %, Table 5a.

Assay [3] deals with T3, serotonin transporter (SERT) (Homo sapiens, UniProt P31645).
T3 construct: expressed in transfected cells; host or cells: CHO cells
T3 sequence (P31645 whole entry): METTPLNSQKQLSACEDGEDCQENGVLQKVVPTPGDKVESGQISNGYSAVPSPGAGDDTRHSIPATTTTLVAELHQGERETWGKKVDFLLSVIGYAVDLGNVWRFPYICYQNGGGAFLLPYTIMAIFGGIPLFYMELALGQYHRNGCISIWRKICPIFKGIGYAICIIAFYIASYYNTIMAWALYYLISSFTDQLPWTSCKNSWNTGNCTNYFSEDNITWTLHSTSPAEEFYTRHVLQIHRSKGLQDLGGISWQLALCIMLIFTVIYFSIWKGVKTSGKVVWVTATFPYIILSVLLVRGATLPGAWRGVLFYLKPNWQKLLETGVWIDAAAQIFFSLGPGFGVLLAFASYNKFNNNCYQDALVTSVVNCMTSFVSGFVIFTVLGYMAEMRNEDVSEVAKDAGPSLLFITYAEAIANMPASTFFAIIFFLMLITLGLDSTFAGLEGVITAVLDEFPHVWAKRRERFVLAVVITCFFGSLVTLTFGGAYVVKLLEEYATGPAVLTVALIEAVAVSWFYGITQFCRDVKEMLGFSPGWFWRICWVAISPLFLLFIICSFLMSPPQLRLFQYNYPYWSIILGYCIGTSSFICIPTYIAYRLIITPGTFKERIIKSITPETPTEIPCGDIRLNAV
The assay can be described thus: Radioligand binding assay, serotonin transporter (SERT). The note with it: binding assay, test compound 1×10^−6 M. The procedure, abridged:
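Values are derived from competition curves fitted by the Hill equation to give IC50, then converted to Ki by Cheng-Prusoff with radioligand Kd from Scatchard analysis. Specific binding equals total minus non-specific (excess cold ligand), counted by scintillation, and is also expressed as percent inhibition of control.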

For assay [4], the target named is T4, 5-HT2A receptor (Homo sapiens, UniProt P28223).
T4 construct: purchased PerkinElmer
T4 sequence (P28223 whole entry): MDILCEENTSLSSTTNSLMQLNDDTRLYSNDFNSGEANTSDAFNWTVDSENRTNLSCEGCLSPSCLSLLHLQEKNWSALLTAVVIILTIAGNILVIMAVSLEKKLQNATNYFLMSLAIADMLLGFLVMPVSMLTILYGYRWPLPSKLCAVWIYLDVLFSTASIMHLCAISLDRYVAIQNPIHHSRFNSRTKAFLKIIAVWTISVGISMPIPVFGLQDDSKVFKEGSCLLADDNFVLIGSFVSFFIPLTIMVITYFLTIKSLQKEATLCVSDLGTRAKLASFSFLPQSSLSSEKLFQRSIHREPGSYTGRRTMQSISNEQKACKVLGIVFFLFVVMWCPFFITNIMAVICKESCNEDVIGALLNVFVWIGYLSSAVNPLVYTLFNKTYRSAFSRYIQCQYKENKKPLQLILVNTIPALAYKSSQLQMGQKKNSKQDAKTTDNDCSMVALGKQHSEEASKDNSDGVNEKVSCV
Put plainly: Radioligand binding assay, serotoninergic 5-HT2A receptors. The note with it: binding assay result in %, Table 5a. The method, boiled down:
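Competition curves from scintillation-counted specific binding (total minus binding with excess unlabelled ligand) were Hill-fitted to give IC50, converted to Ki via Cheng-Prusoff using Scatchard-derived Kd.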

The target in assay [5] is dopaminergic receptors D3 (Homo sapiens, UniProt P35462). Put plainly: Radioligand binding assay, dopaminergic D3 receptors. The note with it: test compound 1×10^−6 M. The procedure, abridged: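 Scintillation read-out. Specific = total − nonspecific (excess cold ligand). Data as % of control specific binding / % inhibition; IC50 by Hill fit; Ki = IC50/(1+L/KD), KD from Scatchard plot.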
Chain of dopaminergic receptors D3 (P35462 whole entry): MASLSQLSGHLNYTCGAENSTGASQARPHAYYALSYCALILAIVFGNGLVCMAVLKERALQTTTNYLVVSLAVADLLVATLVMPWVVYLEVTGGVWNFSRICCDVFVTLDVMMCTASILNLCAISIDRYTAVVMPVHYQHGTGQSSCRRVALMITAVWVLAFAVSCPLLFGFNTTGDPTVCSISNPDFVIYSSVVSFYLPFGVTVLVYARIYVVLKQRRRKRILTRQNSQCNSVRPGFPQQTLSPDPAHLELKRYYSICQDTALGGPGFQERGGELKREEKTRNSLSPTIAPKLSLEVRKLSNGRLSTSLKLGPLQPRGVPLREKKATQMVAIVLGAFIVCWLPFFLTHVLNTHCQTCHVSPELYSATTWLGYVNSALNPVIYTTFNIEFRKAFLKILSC

Assay [6] concerns the target T5, 5-HT6 receptor (Homo sapiens, UniProt P50406).
T5 construct: purchased PerkinElmer
The assay can be described thus: Radioligand binding assay, serotoninergic 5-HT6 receptors.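 Note: test compound at 1 µM.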 The note with it: binding assay result in %, Table 5a. The method, boiled down: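 Values are Ki from Cheng–Prusoff, taking IC50 from Hill nonlinear regression of competition curves and KD from a Scatchard plot. Specific binding was total minus binding with excess unlabelled ligand. Radioligand displacement was detected by scintillation counting, and data were also reported as percent of control specific binding.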

Assay [7] has as its system α1 adrenergic receptors (rat cerebral cortex). The assay can be described thus: Radioligand binding assay, adrenergic α1 receptors. The note with it: test compound 1×10^−6 M. The procedure, abridged:
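Values derive from radioligand displacement, with non-specific binding defined by excess cold ligand and detection by scintillation. Hill-fit IC50s were converted to Ki via Cheng-Prusoff using Scatchard-derived Kd; percent inhibition of control specific binding also reported.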

For assay [8], the target named is dopaminergic receptors D2 (Homo sapiens, UniProt P14416). Put plainly: Radioligand binding assay, dopaminergic D2 receptors. The note with it: binding assay, test compound 1×10^−6 M. The procedure, abridged:
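Values derive from competition curves: percent inhibition of control specific binding was fitted by Hill non-linear regression for IC50, and Ki calculated with Cheng–Prusoff from radioligand concentration and KD (Scatchard). Bound ligand was detected by scintillation counting.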

Chain of dopaminergic receptors D2 (P14416 whole entry): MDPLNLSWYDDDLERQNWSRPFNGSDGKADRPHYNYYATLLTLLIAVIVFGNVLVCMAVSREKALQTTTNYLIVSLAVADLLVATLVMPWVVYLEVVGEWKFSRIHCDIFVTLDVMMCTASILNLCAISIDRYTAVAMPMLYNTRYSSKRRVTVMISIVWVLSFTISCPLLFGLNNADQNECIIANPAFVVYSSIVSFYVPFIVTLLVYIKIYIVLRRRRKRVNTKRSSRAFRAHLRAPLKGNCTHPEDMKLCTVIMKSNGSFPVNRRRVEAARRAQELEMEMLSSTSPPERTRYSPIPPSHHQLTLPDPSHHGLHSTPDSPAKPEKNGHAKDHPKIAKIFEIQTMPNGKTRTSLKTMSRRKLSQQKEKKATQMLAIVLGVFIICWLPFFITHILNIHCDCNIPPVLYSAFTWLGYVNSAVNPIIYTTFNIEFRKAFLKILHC
T1 sequence (P34969 whole entry): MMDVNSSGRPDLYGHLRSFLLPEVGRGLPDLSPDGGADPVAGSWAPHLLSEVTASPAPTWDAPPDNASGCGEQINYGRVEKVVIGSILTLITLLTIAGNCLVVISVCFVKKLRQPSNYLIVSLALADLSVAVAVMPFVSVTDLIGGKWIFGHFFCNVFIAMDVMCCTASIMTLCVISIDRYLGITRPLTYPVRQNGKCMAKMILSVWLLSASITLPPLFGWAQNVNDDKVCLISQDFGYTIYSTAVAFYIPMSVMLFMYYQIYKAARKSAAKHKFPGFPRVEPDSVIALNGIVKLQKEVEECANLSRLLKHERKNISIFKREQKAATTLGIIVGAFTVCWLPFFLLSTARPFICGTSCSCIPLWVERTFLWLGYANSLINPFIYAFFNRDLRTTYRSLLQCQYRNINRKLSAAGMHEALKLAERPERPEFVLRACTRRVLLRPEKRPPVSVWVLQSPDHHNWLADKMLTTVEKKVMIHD
T5 sequence (P50406 whole entry): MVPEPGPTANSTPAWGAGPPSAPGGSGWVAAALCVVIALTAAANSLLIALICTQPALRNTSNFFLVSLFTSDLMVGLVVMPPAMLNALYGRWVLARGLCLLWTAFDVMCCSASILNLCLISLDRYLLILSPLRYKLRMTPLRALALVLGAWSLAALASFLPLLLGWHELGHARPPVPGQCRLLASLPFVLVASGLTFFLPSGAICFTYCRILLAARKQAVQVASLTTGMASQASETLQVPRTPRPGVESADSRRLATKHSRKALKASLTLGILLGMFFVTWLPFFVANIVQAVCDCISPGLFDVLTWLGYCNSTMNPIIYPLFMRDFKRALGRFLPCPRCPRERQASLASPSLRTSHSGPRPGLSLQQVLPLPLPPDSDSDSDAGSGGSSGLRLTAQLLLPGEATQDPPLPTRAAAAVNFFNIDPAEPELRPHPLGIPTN

On to `Cn1ccc2cc(S(=O)(=O)NCC3CCN(CCOc4cccc5ccccc45)C3)ccc21` (stereo not drawn) [Compound 274, 1-Methyl-N-[[1-[2-(1-naphthyloxy)ethyl]pyrrolidin-3-yl]methyl]indole-5-sulphonamide], for which the inhibition – broadly, the drop in the measured response relative to a control, in per cent – at 1 µM came to 86% in assay [1]; 77% in assay [2]; 109% in assay [3]; 89% in assay [4]; 81% in assay [5]; 97% in assay [6]. In assay [8], the inhibition at 1 µM turned out to be 62%. The “α1 [%]” value in assay [7] is recorded as 41%.

As for `Cn1ccc2c(S(=O)(=O)NCC3CCN(CCOc4cccc5ccccc45)C3)cccc21` (stereo not drawn) [Compound 275, 1-Methyl-N-[[1-[2-(1-naphthyloxy)ethyl]pyrrolidin-3-yl]methyl]indole-4-sulphonamide], the inhibition at 1 µM in assay [1] is 111%; in assay [2] it was 86%; in assay [3], 93%; in assay [4], 91%; in assay [5], 94%; in assay [6] it was 84%. In addition, the inhibition at 1 µM in assay [8] amounted to 66%. For the same compound, the “α1 [%]” value in assay [7] is 53%.

Take `O=S(=O)(NCC1CCN(CCOc2cccc3ccccc23)C1)c1csc2ccccc12` (stereo not drawn) [Compound 276, N-[[1-[2-(1-Naphthyloxy)ethyl]pyrrolidin-3-yl]methyl]benzothiophene-3-sulphonamide]: the inhibition at 1 µM in assay [1] turned out to be 82%; in assay [2], 81%; in assay [3], 84%; in assay [4], 92%; in assay [5], 91%; in assay [6], 84%. Also, the inhibition at 1 µM in assay [8] amounted to 41%. Besides, in assay [7], the “α1 [%]” value is on record as 16%.

For `O=S(=O)(NCC1CCN(CCOc2cccc3ccccc23)C1)c1ccc(F)c(Cl)c1` (stereo not drawn) [Compound 277, 3-Chloro-4-fluoro-N-[[1-[2-(1-naphthyloxy)ethyl]pyrrolidin-3-yl]methyl]benzenesulphonamide], the inhibition at 1 µM was 108% in assay [1]; 85% in assay [2]; 68% in assay [3]; 85% in assay [4]; 90% in assay [5]; 93% in assay [6]. In assay [8], the inhibition at 1 µM was found to be 34%. For the same compound, the “α1 [%]” value in assay [7] was determined as 21%.

In the case of `O=S(=O)(NCC1CCN(CCOc2cccc3ccccc23)C1)c1ccc(F)c(F)c1` (stereo not drawn) [Compound 278, 3,4-Difluoro-N-[[1-[2-(1-naphthyloxy)ethyl]pyrrolidin-3-yl]methyl]benzenesulphonamide], the inhibition at 1 µM was 102% in assay [1]; 84% in assay [2]; 91% in assay [3]; 91% in assay [4]; 94% in assay [5]; 85% in assay [6]. The inhibition at 1 µM in assay [8] was found to be 31%. Besides, the “α1 [%]” value in assay [7] is recorded as 37%.

On to `O=S(=O)(NCC1CCN(CCOc2cccc3c2OCCO3)C1)c1ccc2scnc2c1` (stereo not drawn) [Compound 285, N-[[1-[2-(2,3-Dihydro-1,4-benzodioxin-5-yloxy)ethyl]pyrrolidin-3-yl]methyl]-1,3-benzothiazole-5-sulphonamide], for which the inhibition at 1 µM in assay [1] stood at 86%; in assay [2], 62%; in assay [3] it was 60%; in assay [4], 77%; in assay [5] it was 18%; in assay [6] it was 34%. Moreover, the inhibition at 1 µM in assay [8] turned out to be 24%. In addition, in assay [7], the “α1 [%]” value amounted to 69%.

With `O=S(=O)(NCC1CCN(CCOc2cccc3c2OCCO3)C1)c1ccc(Cl)cc1` (stereo not drawn) [Compound 289, 4-Chloro-N-[[1-[2-(2,3-dihydro-1,4-benzodioxin-5-yloxy)ethyl]pyrrolidin-3-yl]methyl]benzenesulphonamide], the inhibition at 1 µM in assay [1] was 81%; in assay [2] it was 99%; in assay [3], 53%; in assay [4], 61%; in assay [5], 41%; in assay [6], -1%. Moreover, the inhibition at 1 µM in assay [8] is -19%. For the same compound, the “α1 [%]” value in assay [7] was 46%.

For the compound `Cc1ccc(S(=O)(=O)NCC2CCN(CCOc3cccc4c3OCCO4)C2)cc1` (stereo not drawn) [Compound 291, N-[[1-[2-(2,3-Dihydro-1,4-benzodioxin-5-yloxy)ethyl]pyrrolidin-3-yl]methyl]-4-methyl-benzenesulphonamide], the inhibition at 1 µM was 80% in assay [1]; 94% in assay [2]; 66% in assay [3]; 63% in assay [4]; 33% in assay [5]; 19% in assay [6]. The inhibition at 1 µM in assay [8] worked out at 29%. Further, the “α1 [%]” value in assay [7] is 66%.

Turning to `O=S(=O)(NCC1CCN(CCOc2cccc3c2OCCO3)C1)c1ccc(Cl)c(Cl)c1` (stereo not drawn) [Compound 301, 3,4-Dichloro-N-[[1-[2-(2,3-dihydro-1,4-benzodioxin-5-yloxy)ethyl]-pyrrolidin-3-yl]methyl]benzenesulphonamide], the inhibition at 1 µM in assay [1] came to 98%; in assay [2] it was 96%; in assay [3], 38%; in assay [4] it was 81%; in assay [5], 34%; in assay [6] it was 61%. Besides, the inhibition at 1 µM in assay [8] is -22%. For the same compound, in assay [7], the “α1 [%]” value was determined as 46%.

Consider `O=S(=O)(NCC1CCN(CCOc2cccc3c2OCCO3)C1)c1cccs1` (stereo not drawn) [Compound 302, N-[[1-[2-(2,3-Dihydro-1,4-benzodioxin-5-yloxy)ethyl]pyrrolidin-3-yl]-methyl]thiophene-2-sulphonamide], for which the inhibition at 1 µM in assay [1] was 105%; in assay [2], 89%; in assay [3], 37%; in assay [4], 52%; in assay [5], 37%; in assay [6] it was 35%. In addition, in assay [8], the inhibition at 1 µM is 34%. Also, in assay [7], the “α1 [%]” value amounted to 63%.

Regarding `O=S(=O)(NCC1CCN(CCOc2cccc3c2OCCO3)C1)c1ccc(Cl)s1` (stereo not drawn) [Compound 316, 5-Chloro-N-[[1-[2-(2,3-dihydro-1,4-benzodioxin-5-yloxy)ethyl]pyrrolidin-3-yl]-methyl]thiophene-2-sulphonamide], the inhibition at 1 µM in assay [1] was determined as 87%; in assay [2], 74%; in assay [3], 8%; in assay [4] it was 82%; in assay [5] it was 36%; in assay [6] it was 36%. The inhibition at 1 µM in assay [8] is -2%. In addition, the “α1 [%]” value in assay [7] came out at 66%.

Regarding `O=S(=O)(NC1CCN(CCCc2noc3cc(F)ccc23)CC1)c1ccc2cc(Cl)ccc2c1` [Compound 325, 6-Chloro-N-[1-[3-(6-fluoro-1,2-benzoxazol-3-yl)propyl]-4-piperidyl]naphthalene-2-sulphonamide], the inhibition at 1 µM in assay [1] is 89%; in assay [2], 80%; in assay [3], 21%; in assay [4], 92%; in assay [5], 59%; in assay [6], 72%. In addition, the inhibition at 1 µM in assay [8] is 91%. In addition, the “α1 [%]” value in assay [7] stood at 76%.

(Values after patent publication US20140135310A1, “SULPHONAMIDE DERIVATIVES OF ALICYCLIC AMINES FOR THE TREATMENT OF CENTRAL NERVOUS SYSTEM DISEASES” (Adamed Sp. z o.o., priority 2011, published 2014).)
